pIC50: −log10 of the molar value.
Assays:
[1] = system: convulsions and death induced by 3-mercaptopropionic acid; test: 3-Mercaptopropionic acid (3-MPA) induced convulsions; assay type: in vivo, male Swiss albino mice (CD1); settings: for 3-MPA score: total number of mice protected for two groups of 5 animals, 30 min: 30 min before convulsions induced; for activity as inhibitors of tonic convulsions: overall, 3-MPA induced, oral, mice
Experimental: (§1) Treatment of a mammal afflicted by or susceptible to certain CNS disorders is accomplished by administration of a therapeutically-effective amount of a compound of Formula I. In particular, compounds 1-3 of Table 1 were evaluated by in vitro and in vivo animal model assays to determine the pharmacological properties of such compounds and their suitability for use as therapeutic drugs in humans. These biological assays, as described below, consisted of prevention of induced convulsions in mice, a TCP binding study in rat brain, determination of acute toxicity in mice and an animal behavior assay. Except as otherwise specified, the animals used in the in vivo test were male Swiss albino mice of weight 22 to 33 g [CD1, Charles River, France], housed in groups of 10 on a 12-hour dark-light cycle for at least one week and fasted overnight prior to testing.
Compounds of Formula I were examined as inhibitors of convulsions and death induced by the convulsant agent 3-mercaptopropionic acid (3-MPA, 120 mg/kg subcutaneously) [W. van Dorsser, D. Barris, A. Cordi and J. Roba, Arch. Int. Pharmacodyn., 266, 239-249 (1983)]. The compounds of the invention were administered orally at a dosage of either 100 mg/kg or 30 mg/kg in a volume of 10 ml/kg each to 5 mice, at intervals of 30 minutes or 2 hours before convulsions were induced. The number of mice protected against tonic convulsions and the number of dead mice were noted. Results are given in Table II as a score which represents the total number of mice protected for two groups of 5 animals (3-MPA).

[2] = parameters: species or system mice; settings: mouse, in vivo
Experimental: as §1
Behavioral effect of compounds of the invention on animals were determined by observations taken at 5 to 6 hours and at 24 hours after administration of compounds of the invention. Determinations were made based on a method derived from that of S. Irwin [See R. A. Turner, Screening Methods in Pharmacology, Chapter 3, pages 22-34, Academic Press, N.Y. (1965)]. If an anomaly were noted, the observation was extended and smaller doses were tested. […]

[3] = Acute toxicity (LD50, oral); parameters: species or system male mice; settings: mouse, in vivo, mice, mortality over 15 days
Experimental: as §1
The acute toxicity was determined after oral administration of the test compound to mice. […] Doses used in the test were determined by observing toxic effects on the mice, which doses varied from 3,000 mg/kg down to about 3 mg/kg. The mortality was recorded over a period of 15 days. The LD50 result in Table II was calculated according to published methods [Lichtfield and Wilcoxon, J. Pharmacol. Exp. Ther., 96, 99 (1949)] and is expressed in mg of test compound per kilogram of mouse body weight.

[4] = molecular target: TCP (1-[1-(2-thienyl)cyclohexyl]piperidine) binding in rat brain synaptic membranes (SPM); test: TCP binding study; settings: 2 nM tritiated TCP, pH 7.4, 25° C., 60 min
Experimental: The effect of compounds of Formula I on TCP (1-[1-(2-thienyl)cyclohexyl]piperidine) binding was measured in rat brain synaptic membranes (SPM) prepared by known methods [J. B. Monahan & J. Michel; J. Neurochem., 48, 1699-1708 (1987)]. Prior to their use in the binding assay, frozen SPM were thawed, then diluted twenty fold with 50 mM Tris/acetate [pH 7.4, containing 0.04% (v/v) Triton X-100], incubated for 30 min. at 37° C. and centrifuged at 95,000 xg for 15 min. The Triton X-100 treated SPM were washed with 5 mM Tris/HCl (pH 7.4) and centrifuged a total of six times. Compound of the invention was incubated at differing concentrations with SPM (0.2-0.4 mg protein) and 2 nM tritiated TCP, in a total volume of 0.5 ml of 5 mM Tris/HCl buffer (pH 7.4) at 25° C. for 60 min. The samples were filtered through glass fiber filters (Schleicher & Schuell #32) which had been pretreated with 0.05% (v/v) polyethyleneimine, washed with 2 ml of ice-cold 5 mM Tris/HCl buffer, and then counted on a Beckman LS 5800 liquid scintillation counter with automatic corrections for quenching and counting efficiency. Inhibition of TCP binding was measured as a decrease in basal binding. […] TCP binding inhibition values (IC50) were calculated using logit-log analysis and calculations and regression analysis were performed using templates developed for Lotus 123 by known methods [L. M. Pullan, Computer Appli. […]

[5] = compound orally at 100 mg/kg or 30 mg/kg, 3-MPA 120 mg/kg s.c.

Row | SMILES | 3-MPA score: total number of mice protected for two groups of 5 animals, 30 min [1, 5] | activity as inhibitors of tonic convulsions [1] | Behavior: convulsions (CON), dose at which the behavior is observed [2] | 3-MPA score: total number of mice protected for two groups of 5 animals, 2 hrs ([1]; compound orally at 100 mg/kg or 30 mg/kg, 2 hours before convulsions induced, 3-MPA 120 mg/kg s.c.) | LD50 at 360 h [3] | Behavior: sedation (SED), dose at which the behavior is observed [2] | pIC50 [4]
1 | NC(=O)CNC1c2ccccc2CSc2ccccc21 (stereo not shown) [Compound 3, 2-(2,3-6,7-dibenzo-4-thiacycloheptanylamino)acetamide] | 10 | very good activity |  |  |  |  | 
2 | NC(=O)CNC1c2ccccc2C=Cc2ccccc21 [Compound 2, 2-(2,3-6,7-dibenzocyclohept-4-enylamino)acetamide] | 3 |  | 1000 mg/kg |  |  |  | 
3 | NC(=O)CNC1c2ccccc2CCc2ccccc21 [Compound 1, 2-(2,3-6,7-dibenzocycloheptanylamino)acetamide] | 10 | very good activity |  | 10 | 780 mg/kg | 300 mg/kg | 4.42
